From ChEMBL document CHEMBL1157152, “Kinetic parameters and recognition of thymidine analogues with varying functional groups by thymidine phosphorylase” (Bioorg Med Chem, 2008)

What was measured:
[1] = target: Thymidine phosphorylase (Escherichia coli K-12) (UniProt P07650); assay: Activity of Escherichia coli thymidine phosphorylase assessed as drug phosphorylation after 1 hr; parameters: concentration or dose not given beside the values
[2] = target: Thymidine phosphorylase (Escherichia coli K-12) (UniProt P07650); assay: Activity of Escherichia coli thymidine phosphorylase assessed as drug phosphorylation after 2 hrs; parameters: concentration or dose not given beside the values
[3] = target: Thymidine phosphorylase (Escherichia coli K-12) (UniProt P07650); assay: Activity of 10 U/mL Escherichia coli thymidine phosphorylase assessed as drug phosphorylation after 1 week
[4] = target: Thymidine phosphorylase (Escherichia coli K-12) (UniProt P07650); assay: Activity of 10 U/mL Escherichia coli thymidine phosphorylase assessed as drug phosphorylation after 24 hrs
[5] = target: Thymidine phosphorylase (Escherichia coli K-12) (UniProt P07650); assay: Activity of Escherichia coli thymidine phosphorylase assessed as drug phosphorylation after 24 hrs
[6] = target: Thymidine phosphorylase (Escherichia coli K-12) (UniProt P07650); assay: Activity of 1 U/mL Escherichia coli thymidine phosphorylase assessed as drug phosphorylation after 1 hr

Chain of Thymidine phosphorylase (Escherichia coli K-12) (P07650 whole entry, looked up): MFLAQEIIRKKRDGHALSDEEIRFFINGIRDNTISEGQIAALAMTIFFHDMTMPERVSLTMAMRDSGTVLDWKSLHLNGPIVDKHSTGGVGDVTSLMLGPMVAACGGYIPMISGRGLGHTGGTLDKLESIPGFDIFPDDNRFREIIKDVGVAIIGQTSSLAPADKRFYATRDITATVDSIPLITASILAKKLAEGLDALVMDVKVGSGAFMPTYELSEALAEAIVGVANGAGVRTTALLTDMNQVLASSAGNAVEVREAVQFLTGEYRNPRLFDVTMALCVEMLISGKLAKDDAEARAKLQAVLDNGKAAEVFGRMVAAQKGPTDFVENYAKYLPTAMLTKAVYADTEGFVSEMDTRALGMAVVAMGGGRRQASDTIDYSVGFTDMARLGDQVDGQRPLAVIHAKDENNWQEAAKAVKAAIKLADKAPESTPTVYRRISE

Which Activity [1] does the source give for Cc1cn([C@H]2C[C@H](O)[C@@H](C)O2)c(=O)[nH]c1=O here?
Its Activity is 68%.

What about the Activity [2] of the same molecule?
Its Activity is 91%.

Which Activity [3] does the source give for Cc1cnc(=O)n([C@H]2C[C@H](O)[C@@H](CO)O2)c1 here?
The Activity was 0%.

What about the Activity [4] of the same molecule?
Its Activity is 0%.

Which results are given for Cc1cn([C@H]2C[C@H](O)[C@@H](CN=[N+]=[N-])O2)c(=O)[nH]c1=O?
Activity [1]: 0%; Activity [2]: 0%

For Cc1cn([C@H]2C[C@H](N)[C@@H](CO)O2)c(=O)[nH]c1=O, which Activity [1] is on record?
Its Activity is 0.76%.

What about the Activity [2] of the same molecule?
The Activity was 1.5%.

With Cc1cn([C@H]2C[C@H](O)C[C@@H](CO)O2)c(=O)[nH]c1=O as the molecule, how does the Activity [4] read?
Its Activity is 0%.

Which Activity [3] does the source give for Cc1cn([C@@H]2C[C@H](O)[C@@H](CO)O2)c(=O)[nH]c1=O here?
The Activity was 0%.

What about the Activity [4] of the same molecule?
Its Activity is 0%.

What does the source list for Cc1cn([C@H]2C[C@H](O)[C@@H](CS)O2)c(=O)[nH]c1=O?
Activity [1]: 39%; Activity [2]: 90%

Which Activity [4] does the source give for Cc1cn(COC(CO)CO)c(=O)[nH]c1=O here?
Its Activity is 0%.

For Cc1cn([C@H]2CC[C@@H](CO)O2)c(=O)[nH]c1=O, which Activity [1] is on record?
The Activity was 3.2%.

And the Activity [2]?
Its Activity is 6.1%.

Which results are given for Cc1cn([C@H]2C[C@H](O)[C@@H](CI)O2)c(=O)[nH]c1=O?
Activity [1]: 0%; Activity [2]: 0%

With Cc1cn([C@H]2CC(O)[C@@H](CO)O2)c(=O)[nH]c1=O (single isomer, unassigned) as the molecule, how does the Activity [1] read?
The Activity was 0%.

What about the Activity [2] of the same molecule?
Its Activity is 0%.

Cc1cn([C@H]2C[C@H](S)[C@@H](CO)O2)c(=O)[nH]c1=O was tested. Which Activity [1] did it give?
Its Activity is 0%.

And the Activity [2]?
Its Activity is 0%.

For Cc1nn([C@H]2C[C@H](O)[C@@H](CO)O2)c(=O)[nH]c1=O, which Activity [3] is on record?
The Activity was 7.9%.

What about the Activity [4] of the same molecule?
The Activity was 5.4%.

For Cc1cn([C@H]2C[C@H](O)[C@@H](CO)S2)c(=O)[nH]c1=O, which Activity [4] is on record?
Its Activity is 3.8%.

With Cc1cn([C@H]2C[C@H](O)[C@@H](CCl)O2)c(=O)[nH]c1=O as the molecule, how does the Activity [1] read?
Its Activity is 24%.

What about the Activity [2] of the same molecule?
Its Activity is 70%.

Which results are given for Cc1cn([C@H]2C[C@H](O)[C@@H](CN)O2)c(=O)[nH]c1=O?
Activity [1]: 11%; Activity [2]: 36%

Nc1ccn([C@H]2C[C@H](O)[C@@H](CO)O2)c(=O)n1 was tested. Which Activity [3] did it give?
Its Activity is 0%.

What about the Activity [4] of the same molecule?
Its Activity is 0%.

How did the Activity [1] turn out when O=c1ccn([C@@H]2O[C@H](CO)[C@@H](O)[C@H]2O)c(=O)[nH]1 was run?
Its Activity is 56%.

And the Activity [2]?
The Activity was 81%.

For Cc1cn([C@H]2C[C@H](O)[C@@H](CO)O2)c(=O)[nH]c1=O, which Activity [5] is on record?
The Activity was 82%.

And the Activity [1]?
The Activity was 86%.

And the Activity [6]?
The Activity was 86%.

And the Activity [2]?
Its Activity is 86%.

O=c1ccn([C@H]2C[C@H](O)[C@@H](CO)O2)c(=O)[nH]1 was tested. Which Activity [5] did it give?
Its Activity is 83%.

What about the Activity [2] of the same molecule?
The Activity was 88%.

Which Activity [4] does the source give for Cc1cn([C@@H]2C[C@H](O)[C@@H](CO)S2)c(=O)[nH]c1=O here?
The Activity was 0%.
